SMILES strings stand for the structures.

T1 sequence (Q96LA8 with tags, fused parts or gaps): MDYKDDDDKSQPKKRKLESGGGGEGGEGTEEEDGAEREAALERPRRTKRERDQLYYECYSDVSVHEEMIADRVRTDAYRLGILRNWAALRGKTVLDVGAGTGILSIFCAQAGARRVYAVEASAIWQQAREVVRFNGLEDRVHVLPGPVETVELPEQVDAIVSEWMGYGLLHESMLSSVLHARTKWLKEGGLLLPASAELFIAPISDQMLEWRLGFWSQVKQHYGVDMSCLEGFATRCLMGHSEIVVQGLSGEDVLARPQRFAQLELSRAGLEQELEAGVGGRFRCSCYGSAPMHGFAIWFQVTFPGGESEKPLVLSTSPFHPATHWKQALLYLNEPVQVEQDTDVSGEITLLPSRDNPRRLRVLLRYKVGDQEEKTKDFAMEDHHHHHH

The assay concerns the target T1, human PRMT6 (Homo sapiens, UniProt Q96LA8).
T1 construct: Flag-PRMT6-His; made in house; host or cells: HEK 293F cells (BacMam virus, pFastBacMam)
As to the kind of experiment: PRMT6 Biochemical Assay. The following applies: peptide substrate, 3H-SAM Flashplate assay. From the text: S-adenosylmethionine (SAM), S-adenosylhomocysteine (SAH), bicine, Tween20, dimethylsulfoxide (DMSO), bovine skin gelatin (BSG), sodium butyrate and Tris(2-carboxyethyl)phosphine hydrochloride solution (TCEP) were purchased from Sigma-Aldrich at the highest level of purity possible. ^3H-SAM was purchase from American Radiolabeled Chemicals with a specific activity of 80 Ci/mmol. 384-well streptavidin Flashplates were purchased from PerkinElmer.
Peptide representative of human histone H4 residues 36-50 was synthesized with an N-terminal linker-affinity tag motif and a C-terminal amide cap by 21st Century Biochemicals. The peptide was purified by high-performance liquid chromatography (HPLC) to greater than 95% purity and confirmed by liquid chromatography mass spectrometry (LC-MS). The sequence was Biot-Ahx-[…]-amide and contained a monomethylated lysine at position 44 (SEQ ID NO.:5).
Full-length human PRMT6 (NM_018137.2) transcript clone was amplified from an HEK 293 cDNA library, incorporating a flanking 5′ sequence encoding a FLAG tag ([…]) (SEQ ID NO.:6) fused directly to Ser 2 of PRMT6 and a 3′ sequence encoding a hexa His sequence (HHHHHH) fused directly to Asp 375. The amplified gene was subcloned into pFastBacMam (Viva Biotech).
Recombinant baculovirus were generated according to Bac-to-Bac kit instructions (Life Technologies). […] Infections were carried out at 37° C. for 48 hours, harvested by centrifugation, and stored at −80° C. for purification.
Column was washed with 20 mM imidazole in the same buffer and Flag-PRMT6-His was eluted with 150 mM imidazole. Pooled fractions were dialysed against buffer Ni-A and further purified by anti-flag M2 affinity chromatography. Flag-PRMT6-His was eluted with 200 ug/ml FLAG peptide in the same buffer. Pooled fractions were dialysed in 20 mM Tris, 150 mM NaCl, 10% glycerol and 5 mM β-mercaptoethanol, pH 7.8. The purity of recovered protein was 95%.
General Procedure for PRMT6 Enzyme Assays on Peptide Substrates.
The assays were all performed in a buffer consisting of 20 mM Bicine (pH=7.6), 1 mM TCEP, 0.005% BSG, and 0.002% Tween 20, prepared on the day of use. Compounds in 100% DMSO (1 ul) were spotted into a polypropylene 384-well V-bottom plates (Greiner) using a Platemate Plus outfitted with a 384-channel head (Thermo Scientific). DMSO (1 ul) was added to Columns 11, 12, 23, 24, rows A-H for the maximum signal control and 1 ul of SAH, a known product and inhibitor of PRMT6, was added to columns 11, 12, 23, 24, rows I-P for the minimum signal control. A cocktail (40 ul) containing the PRMT6 enzyme was added by Multidrop Combi (Thermo-Fisher). The compounds were allowed to incubate with PRMT6 for 30 min at room temperature, then a cocktail (10 ul) containing SAM and peptide was added to initiate the reaction (final volume=51 ul). The final concentrations of the components were as follows: PRMT6 was 1 nM, ^3H-SAM was 200 nM, non-radiolabeled SAM was 250 nM, peptide was 75 nM, SAH in the minimum signal control wells was 1 mM, and the DMSO concentration was 2%. The assays were stopped by the addition of non-radiolabeled SAM (10 ul) to a final concentration of 400 uM, which dilutes the ^3H-SAM to a level where its incorporation into the peptide substrate is no longer detectable. 50 ul of the reaction in the 384-well polypropylene plate was then transferred to a 384-well Flashplate and the biotinylated peptides were allowed to bind to the streptavidin surface for at least 1 hour before being washed once with 0.1% Tween20 in a Biotek ELx405 plate washer. The plates were then read in a PerkinElmer TopCount plate reader to measure the quantity of ^3H-labeled peptide bound to the Flashplate surface, measured as disintegrations per minute (dpm) or alternatively, referred to as counts per minute (cpm).
Where dpm=disintegrations per minute, cmpd=signal in assay well, and min and max are the respective minimum and maximum signal controls. […]
`Cc1cncc(-c2n[nH]cc2CN(C)CCN)c1` [Compound 6]: the 50% inhibitory concentration (IC50) lay in the range of 3010 to 10000 nM.

On to `CNCCN(C)Cc1c[nH]nc1-c1ccc(N)nc1` [Compound 3], for which the half-maximal inhibitory concentration (IC50) was ≤ 100 nM.

The compound `CCN(CC(C)C)c1ccc(-c2n[nH]cc2CN(C)CCNC)cn1` [Compound 36] returned an IC50 of 1010 to 3000 nM.

For `CNCCN(C)Cc1c[nH]nc1-c1ccc(N(CC(C)C)CC(C)C)nc1` [Compound 31], the half-maximal inhibitory concentration (IC50) lay in the range of 1010 to 3000 nM.

Consider `Cc1cc(-c2n[nH]cc2CN(C)CCN)cnc1Cl` [Compound 10], for which the IC50 is ≤ 100 nM.

Consider `CNCCN(C)Cc1c[nH]nc1-c1ccc(O)nc1` [Compound 2], for which the IC50 lay within 1010 to 3000 nM.

With `CNCCN(C)Cc1c[nH]nc1-c1cccnc1` [Compound 1], the concentration for half-maximal inhibition (IC50) is ≤ 100 nM.

On to `CN(CCN)Cc1c[nH]nc1-c1ccncc1` [Compound 9], for which the IC50 is ≤ 100 nM.

Take `COc1ccncc1-c1n[nH]cc1CN(C)CCN` [Compound 16]: the concentration for half-maximal inhibition (IC50) was 101 to 1000 nM.

Regarding `CC(C)CNc1ccc(-c2n[nH]cc2CN(C)CCN)cn1` [Compound 26], the concentration for half-maximal inhibition (IC50) is ≤ 100 nM.

As for `CN(CCN)Cc1c[nH]nc1-c1ccc(NCc2ccccc2)nc1` [Compound 25], the IC50 is ≤ 100 nM.

With `CN(CCN)Cc1c[nH]nc1-c1ccc(C#N)nc1` [Compound 28, 5-(4-(((2-aminoethyl)(methyl)amino)methyl)-1H-pyrazol-3-yl)picolinonitrile], the concentration for half-maximal inhibition (IC50) is ≤ 100 nM.

`CNCCN(C)Cc1c[nH]nc1-c1ccc(N(C)C(C)C)nc1` [Compound 33, N^1-((3-(6-(isopropyl(methyl)amino)pyridin-3-yl)-1H-pyrazol-4-yl)methyl)-N^1,N^2-dimethylethane-1,2-diamine] came in with an IC50 of 101 to 1000 nM.

Take `CN(CCN)Cc1c[nH]nc1-c1cncc(C#N)c1` [Compound 18]: the IC50 lay within 101 to 1000 nM.

On to `CN(CCN)Cc1c[nH]nc1-c1ccc(C(F)(F)F)nc1` [Compound 13, N^1-methyl-N^1-((3-(6-(trifluoromethyl)pyridin-3-yl)-1H-pyrazol-4-yl)methyl)ethane-1,2-diamine], for which the IC50 is ≤ 100 nM.

`COc1ncccc1-c1n[nH]cc1CN(C)CCN` [Compound 15] came in with an IC50 of 101 to 1000 nM.

Consider `CN(CCN)Cc1c[nH]nc1-c1cncc(F)c1` [Compound 7], for which the IC50 is ≤ 100 nM.

`CN(CCN)Cc1c[nH]nc1-c1ccc(N2CCOCC2)nc1` [Compound 20] displayed an IC50 of 101 to 1000 nM.

For the compound `COc1ncc(Cl)cc1-c1n[nH]cc1CN(C)CCN` [Compound 14], the concentration for half-maximal inhibition (IC50) is 1010 to 3000 nM.

Regarding `CNCCN(C)Cc1c[nH]nc1-c1ccc(N(C)CCC(C)C)nc1` [Compound 30], the 50% inhibitory concentration (IC50) was ≤ 100 nM.

With `CNCCN(C)Cc1c[nH]nc1-c1ccc(OCC(C)C)nc1` [Compound 35, N^1-((3-(6-iso-butoxypyridin-3-yl)-1H-pyrazol-4-yl)methyl)-N^1,N^2-dimethylethane-1,2-diamine], the IC50 was ≤ 100 nM.

`CCN(CC)c1ccc(-c2n[nH]cc2CN(C)CCN)cn1` [Compound 24] displayed a 50% inhibitory concentration (IC50) of 101 to 1000 nM.

Compound `CN(CCN)Cc1c[nH]nc1-c1cncc(S(C)(=O)=O)c1` [Compound 4] registered an IC50 of 1010 to 3000 nM.

`CN(CCN)Cc1c[nH]nc1-c1ccc(N(C)Cc2ccccc2)nc1` [Compound 23]: the IC50 is ≤ 100 nM.

As to `CC(C)Oc1ccc(-c2n[nH]cc2CN(C)CCN)cn1` [Compound 22], the half-maximal inhibitory concentration (IC50) was ≤ 100 nM.

On to `CN(CCN)Cc1c[nH]nc1-c1cccnc1` [Compound 8], for which the half-inhibitory concentration (IC50) is ≤ 100 nM.

For `COc1cc(-c2n[nH]cc2CN(C)CCN)ccn1` [Compound 11], the half-inhibitory concentration (IC50) was ≤ 100 nM.

On to `CNCCN(C)Cc1c[nH]nc1-c1ccc(N(C)CC(C)C)nc1` [Compound 32, N^1-((3-(6-(isobutyl(methyl)amino)pyridin-3-yl)-1H-pyrazol-4-yl)methyl)-N^1,N^2-dimethylethane-1,2-diamine], for which the half-maximal inhibitory concentration (IC50) lay within 101 to 1000 nM.

For `CN(CCN)Cc1c[nH]nc1-c1ccccn1` [Compound 27], the IC50 was 3010 to 10000 nM.

Consider `CCN(CCC(C)C)c1ccc(-c2n[nH]cc2CN(C)CCNC)cn1` [Compound 34, N^1-((3-(6-(ethyl(isopentyl)amino)pyridin-3-yl)-1H-pyrazol-4-yl)methyl)-N^1,N^2-dimethylethane-1,2-diamine], for which the IC50 lay within 101 to 1000 nM.

As for `CN(CCN)Cc1c[nH]nc1-c1cncc(Cl)c1` [Compound 19], the IC50 was ≤ 100 nM.

As to `Cc1ccncc1-c1n[nH]cc1CN(C)CCN` [Compound 17], the IC50 is 101 to 1000 nM.

Take `COc1cc(-c2n[nH]cc2CN(C)CCN)c(Cl)cn1` [Compound 12]: the IC50 was in the range of 101 to 1000 nM.

As for `CC(C)CN(C)c1ccc(-c2n[nH]cc2CN(C)CCN)cn1` [Compound 21], the IC50 is 101 to 1000 nM.

As to `COc1ccc(-c2n[nH]cc2CN(C)CCN)cn1` [Compound 5], the IC50 was ≤ 100 nM.

As to `CN(CCN)Cc1c[nH]nc1-c1cnccc1C(F)(F)F` [Compound 29], the IC50 was 101 to 1000 nM.
